From patent US9296698B2, “Amino heteroaryl compounds as beta-secretase modulators and methods of use” (Amgen Inc., priority 2009, dated 2016)
Like-named read-outs stand apart in the source and are kept apart here.

Key:
[1] = target: BACE 1 (Beta Secretase enzyme) (Homo sapiens, UniProt P56817); experiment: In vitro enzymatic BACE FRET assay; type: biochemical
Procedure: In Vitro Enzymatic BACE FRET (Fluorescence Resonance Energy Transfer) Assay (Enzyme Assay Data in Table 1)
The assay buffer used in this screen is 0.05 M acetate, pH 4.2, 10% DMSO final, 100 uM genapol (which is a nonionic detergent, below its Critical Micelle Concentration). […] The assay is effectively started by the addition of FRET substrate (50 nM) and the combination is incubated for one hour. The FRET assay is terminated with by addition of Tris buffer, which raises the pH to neutrality, and the fluorescence is determined. The FRET substrate is a peptide with commercially available fluorophore and quencher, on opposite sides of the BACE cleavage site.

[2] = system: Aβ40 in conditioned medium of cells stably expressing Amyloid Precursor Protein (APP); experiment: In vitro BACE cell-based assay (HEK cell assay), Aβ40 sandwich ELISA
Procedure: In Vitro BACE Cell-Based Assay:
The cell-based assay measures inhibition or reduction of Aβ40 in conditioned medium of test compound treated cells expressing amyloid precursor protein.
Cells stably expressing Amyloid Precursor Protein (APP) were plated at a density of 40K cells/well in 96 well plates (Costar). The cells were cultivated for 24 hours at 37° C. and 5% CO2 in DMEM supplemented with 10% FBS. The test compounds were then added to cells in 10-point dose response concentrations with the starting concentration being either 100 μM or 10 μM. The compounds were diluted from stock solutions in DMSO and the final DMSO concentration of the test compounds on cells was 0.1%. After 24 h of incubation with the test compounds the supernatant conditioned media was collected and the Aβ 40 levels were determined using a sandwich ELISA. The IC50 of the compound was calculated from the percent of control or percent inhibition of Aβ 40 as a function of the concentration of the test compound.
The sandwich ELISA to detect Aβ 40 was performed in 96 well microtiter plates, which were pre-treated with goat anti-rabbit IgG (Pierce). The capture and detecting antibody pair that were used to detect Aβ 40 from cell supernatants were affinity purified pAb40 (Biosource) and biotinylated 6E10 (Signet Labs Inc.), respectively. The optimal concentration for the pAb40 antibody was 3 μg/ml in Superblock/TBS (Pierce) that was supplemented with 0.05% Tween 20 (Sigma).
Cellular supernatants were incubated with the capture antibody for 3 h at 4° C., followed by 3 wash steps in TBS-tween (0.05%). The detecting antibody incubation was for 2 h at 4° C., again followed by the wash steps as described previously. The final readout of the ELISA is Time-Resolved Fluorescence (counts per minute) using Delfia reagents Streptavidin-Europium and Enhancement solutions (Perkin Elmer) and the Victor 2 multilabel counter (Perkin Elmer).

[3] = IC50 range symbols, Table 1, read-out: BACE 1 FRET assay
[4] = bound stated, read-out: IC50 value in the FRET BACE enzyme assay
[5] = Homo sapiens, HEK293, 24 h, IC50 range symbols, Table 1, Aβ40, 24 h incubation, read-out: HEK cell assay
[6] = IC50 range symbols, Table 1, Aβ40, 24 h incubation, read-out: HEK cell assay

Chain of BACE 1 (Beta Secretase enzyme) (P56817 46-501, species assumed): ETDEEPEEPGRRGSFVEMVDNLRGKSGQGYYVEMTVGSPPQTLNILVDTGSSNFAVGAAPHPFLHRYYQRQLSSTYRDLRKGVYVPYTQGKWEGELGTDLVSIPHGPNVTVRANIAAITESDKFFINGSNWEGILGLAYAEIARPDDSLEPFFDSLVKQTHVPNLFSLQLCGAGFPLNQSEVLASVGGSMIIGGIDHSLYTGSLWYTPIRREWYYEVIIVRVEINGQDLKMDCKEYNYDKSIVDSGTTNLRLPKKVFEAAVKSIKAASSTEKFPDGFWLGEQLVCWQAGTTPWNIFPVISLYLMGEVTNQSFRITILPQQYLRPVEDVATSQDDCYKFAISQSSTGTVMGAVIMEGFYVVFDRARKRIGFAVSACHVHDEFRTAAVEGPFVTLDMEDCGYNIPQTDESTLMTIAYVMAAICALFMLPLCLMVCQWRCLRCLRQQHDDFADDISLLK

Molecule | IC50 [1, 3] | IC50 [1, 4] | IC50 [2, 5] | IC50 ([2]; Homo sapiens, HEK293, bound stated in text, read-out: IC50 value in the BACE cell-based in-vitro assay) | IC50 [2, 6]
Cc1cccnc1-c1cc2cc(CC(C)C(=O)NCCC(C)(C)C)c(N)nc2cc1F (stereo not shown) [Example 98, 3-(2-amino-7-fluoro-6-(3-methyl-2-pyridinyl)-3-quinolinyl)-N-(3,3-dimethylbutyl)-2-methylpropanamide] | < 500 nM | < 50 nM | < 500 nM | – | –
Cc1cccc(C(=O)N2CCCC2)c1-c1ccc2nc(N)c(CC(C)C(=O)NCc3ccccn3)cc2c1 (stereo not shown) [Example 149, 3-(2-amino-6-(2-methyl-6-(pyrrolidine-1-carbonyl)phenyl)quinolin-3-yl)-2-methyl-N-(pyridin-2-ylmethyl)propanamide] | < 500 nM | – | < 500 nM | – | –
Cc1cccnc1-c1ccc2nc(N)c(CC(C)C(=O)NC[C@H]3CCCOC3)cc2c1 (stereo partly drawn) [Example 86, 3-(2-amino-6-(3-methylpyridin-2-yl)quinolin-3-yl)-2-methyl-N-(((R)-tetrahydro-2H-pyran-3-yl)methyl)propanamide] | < 500 nM | – | < 500 nM | – | –
Cc1ccccc1-c1ccc2nc(N)c(CCC(=O)NCC3CCCO3)cc2c1 (stereo not shown) [Example 17, 3-(2-amino-6-o-tolylquinolin-3-yl)-N-((tetrahydrofuran-2-yl)methyl)propanamide] | < 500 nM | – | > 5000 nM | – | –
CC(Cc1cc2cc(-c3cccc(Cl)c3Cl)ccc2nc1N)C(=O)NC1CCOC2(CCC2)C1 (stereo not shown) [Example 161, 3-(2-amino-6-(2,3-dichlorophenyl)quinolin-3-yl)-2-methyl-N-(5-oxaspiro[3.5]nonan-8-yl)propanamide] | < 500 nM | – | < 500 nM | – | –
CC(Cc1cc2cc(-c3cccc(Cl)c3)ccc2nc1N)C(=O)NC1CCOC(C)(C)C1 (stereo not shown) [Example 169, 3-(2-amino-6-(3-chlorophenyl)-3-quinolinyl)-N-(2,2-dimethyltetrahydro-2H-pyran-4-yl)-2-methylpropanamide] | < 500 nM | – | < 500 nM | < 100 nM | –
COc1ccccc1[C@@H](C)NC(=O)C(C)Cc1cc2cc(-c3ccccc3C)ccc2nc1N (stereo partly drawn) [Example 76, 3-(2-amino-6-o-tolylquinolin-3-yl)-N-((R)-1-(2-methoxyphenyl)ethyl)-2-methylpropanamide] | < 500 nM | – | 1000 to 5000 nM | – | –
Cc1cccnc1-c1ccc2nc(N)c(CC(C)C(=O)NCCC3CC3)cc2c1 (stereo not shown) [Example 111, 3-(2-amino-6-(3-methylpyridin-2-yl)quinolin-3-yl)-N-(2-cyclopropylethyl)-2-methylpropanamide] | < 500 nM | – | 1000 to 5000 nM | – | –
COc1ccccc1[C@@H](C)NC(=O)[C@H](C)Cc1cc2cc(-c3ccccc3C)ccc2nc1N [Example 74, (R)-3-(2-amino-6-o-tolylquinolin-3-yl)-N-((R)-1-(2-methoxyphenyl)ethyl)-2-methylpropanamide] | 1000 to 5000 nM | – | > 5000 nM | – | –
Cc1ccccc1-c1ccc2nc(N)c(CCC(=O)NCc3ccnnc3)cc2c1 [Example 139, 3-(2-amino-6-o-tolylquinolin-3-yl)-N-(pyridazin-4-ylmethyl)propanamide] | 1000 to 5000 nM | – | > 5000 nM | – | –
Cc1ccccc1-c1ccc2nc(N)c(CCC(=O)N[C@H](C)c3cccnc3)cc2c1 [Example 131, (R)-3-(2-amino-6-o-tolylquinolin-3-yl)-N-(1-(pyridin-3-yl)ethyl)propanamide] | < 500 nM | – | – | – | 1000 to 5000 nM
CCc1ccccc1-c1ccc2nc(N)c(CCC(=O)NCC3CCCCC3)cc2c1 [Example 49, 3-(2-amino-6-(2-ethylphenyl)quinolin-3-yl)-N-(cyclohexylmethyl)propanamide] | < 500 nM | – | 1000 to 5000 nM | – | –
CC(Cc1cc2cc(-c3ccccc3C#N)ccc2nc1N)C(=O)NC1CCOC(C)(C)C1 (stereo not shown) [Example 142, 3-(2-amino-6-(2-cyanophenyl)-3-quinolinyl)-N-(2,2-dimethyltetrahydro-2H-pyran-4-yl)-2-methylpropanamide] | < 500 nM | – | < 500 nM | – | –
Cc1ccccc1-c1ccc2nc(N)c(CCC(=O)Nc3ccccc3)cc2c1 [Example 25, 3-(2-amino-6-o-tolylquinolin-3-yl)-N-phenylpropanamide] | < 500 nM | – | 500 to 1000 nM | – | –
CC(Cc1cc2cc(-c3ccc(F)cc3)ccc2nc1N)C(=O)NC1CCOC(C)(C)C1 (stereo not shown) [Example 167, 3-(2-amino-6-(4-fluorophenyl)-3-quinolinyl)-N-(2,2-dimethyltetrahydro-2H-pyran-4-yl)-2-methylpropanamide] | 1000 to 5000 nM | – | > 5000 nM | – | –
CC(Cc1cc2cc(-c3ccccc3Cl)ccc2nc1N)C(=O)NC1CCOC2(CCC2)C1 (stereo not shown) [Example 171, 3-(2-amino-6-(2-chlorophenyl)-3-quinolinyl)-2-methyl-N-(5-oxaspiro[3,5]non-8-yl)propanamide] | < 500 nM | – | < 500 nM | – | –
CC(Cc1cc2cc(-c3cccc(Cl)c3)ccc2nc1N)C(=O)NC1CCOC2(CCC2)C1 (stereo not shown) [Example 11, 3-(2-amino-6-(3-chlorophenyl)-3-quinolinyl)-2-methyl-N-(5-oxaspiro[3,5]non-8-yl)propanamide] | < 500 nM | < 50 nM | < 500 nM | – | –
Cc1ccccc1-c1ccc2nc(N)c(CC(C)C(=O)NC3CCOC4(CCC4)C3)cc2c1 [Example 170, (2R)-3-(2-amino-6-(2-methylphenyl)-3-quinolinyl)-2-methyl-N-(5-oxaspiro[35]non-8-yl)propanamide] | < 500 nM | – | < 500 nM | – | –
Cc1ccccc1-c1ccc2nc(N)c(CCC(=O)NCC(C)(C)C)cc2c1 [Example 21, 3-(2-amino-6-o-tolylquinolin-3-yl)-N-neopentylpropanamide] | < 500 nM | – | > 5000 nM | – | –
3-(3-amino-7-o-tolylnaphthalen-2-yl)-N-(2,3-dihydro-1H-inden-1-yl)propanamide [Example 57] | < 500 nM | – | – | – | 1000 to 5000 nM
3-(2-amino-6-(2-((2-methoxyphenyl)carbonyl)phenyl)-3-quinolinyl)-N-(2,2-dimethyltetrahydro-2H-pyran-4-yl)-2-methylpropanamide [Example 146] | < 500 nM | – | – | – | < 500 nM
3-(2-amino-6-(2-methyl-6-(1-pyrrolidinylcarbonyl)phenyl)-3-quinolinyl)-N-(2,2-dimethyltetrahydro-2H-pyran-4-yl)-2-methylpropanamide [Example 145] | < 500 nM | – | – | – | < 500 nM
Nc1nc2ccc(-c3ccccc3)cc2cc1CCC(=O)NCC1CCCCC1 [Example 45, 3-(2-amino-6-phenylquinolin-3-yl)-N-(cyclohexylmethyl)propanamide] | 500 to 1000 nM | – | > 5000 nM | – | –
Nc1nc2ccc(-c3ccccc3F)cc2cc1CCC(=O)NCC1CCCCC1 [Example 42, 3-(2-amino-6-(2-fluorophenyl)quinolin-3-yl)-N-(cyclohexylmethyl)propanamide] | < 500 nM | – | > 5000 nM | – | –
Cc1cccnc1-c1ccc2nc(N)c(CC(C)C(=O)NCC3CCC(F)(F)CC3)cc2c1 (stereo not shown) [Example 117, 3-(2-amino-6-(3-methylpyridin-2-yl)quinolin-3-yl)-N-((4,4-difluorocyclohexyl)methyl)-2-methylpropanamide] | < 500 nM | – | 500 to 1000 nM | – | –
CC(Cc1cc2cc(-c3ccc(Cl)cc3)ccc2nc1N)C(=O)NC1CCOC(C)(C)C1 (stereo not shown) [Example 168, 3-(2-amino-6-(4-chlorophenyl)-3-quinolinyl)-N-(2,2-dimethyltetrahydro-2H-pyran-4-yl)-2-methylpropanamide] | < 500 nM | – | < 500 nM | – | –
3-(3-amino-7-o-tolylnaphthalen-2-yl)-2-methyl-N-(pyridin-3-ylmethyl)propanamide [Example 69] | < 500 nM | – | – | – | 500 to 1000 nM
CC(Cc1cc2cc(C3CC3C)ccc2nc1N)C(=O)NCCC(C)(C)C (stereo not shown) [Example 7, 3-(2-amino-6-(2-methylcyclopropyl)quinolin-3-yl)-N-(3,3-dimethylbutyl)-2-methylpropanamide] | < 500 nM | – | 1000 to 5000 nM | – | –
3-(6-(3-chloropyridin-2-yl)quinolin-3-yl)-N-((4,4-difluorocyclohexyl)methyl)-2-methylpropanamide [Example 99] | < 500 nM | – | – | – | 1000 to 5000 nM
